Laboratory results as given in publication PMC10141386, “The Blockade of Mitogen-Activated Protein Kinase 14 Activation by Marine Natural Product Crassolide Triggers ICD in Tumor Cells and Stimulates Anti-Tumor Immunity” (Marine Drugs, 2023).

Molecular target: MAPK14 (p38 alpha) (Homo sapiens, UniProt Q16539)
Assay: Z′-LYTE FRET kinase assay (SelectScreen, MAPK14 direct, Ser/Thr […] peptide)
Assay type: biochemical

MAPK14 (p38 alpha), sequence (Q16539 2-360): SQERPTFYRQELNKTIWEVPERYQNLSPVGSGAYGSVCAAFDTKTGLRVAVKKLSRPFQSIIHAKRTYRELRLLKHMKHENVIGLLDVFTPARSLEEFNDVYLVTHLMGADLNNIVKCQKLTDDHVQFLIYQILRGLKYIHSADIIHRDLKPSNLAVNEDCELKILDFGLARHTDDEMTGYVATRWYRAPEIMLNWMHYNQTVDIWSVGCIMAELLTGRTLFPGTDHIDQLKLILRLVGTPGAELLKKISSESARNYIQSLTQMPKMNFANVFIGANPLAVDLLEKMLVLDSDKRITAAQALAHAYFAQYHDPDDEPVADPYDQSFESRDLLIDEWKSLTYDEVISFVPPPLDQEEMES

IC50: ~5.15 µM
SMILES: C=C1C(=O)OC2C1C(OC(C)=O)C/C(C)=C/CC(OC(C)=O)/C(C)=C/CC(OC(C)=O)C1(C)OC21 (stereo not shown) [crassolide]
